Values of other authors in patent US20120142730A1 (priority 2010, published 2012).

Conditions: Noseworthy, 2000; cited from earlier work

SMILES: CN(C(=O)c1c(O)c2ccccc2n(C)c1=O)c1ccccc1 [roquinimex]
- Safety concerns previously seen: serositis, cardiovascular events and thrombosis
